Reference: patent US20250076320A1, “METHOD AND PROGRAM FOR DETECTING ADMINISTERED DRUG, AND DEVICE THEREFOR” (A&T CORPORATION, priority 2023, published 2025)

System: prothrombin time (blood coagulation, extrinsic pathway)
Assay: Clot waveform analysis with dry PT reagent containing magnetic particles on the CG02N blood coagulation analyzer
Details: samples receiving administration of rivaroxaban, PT-INR 2.0 or higher (22 samples); inclination from maximal movement level of magnetic particles to 5% attenuation; 25 μl sample; samples not receiving DOAC: −1219.8
Description: When measurement is initiated, apparatus CG02N turns electromagnets at the bottom of the reaction cell on and off, and allows magnetic particles to move in the reaction cell. CG02N observes the movement of the magnetic particles as the amount of change in the scattered light, and analyzes the change with the elapse of time to determine clotting time. When the CG02N analyzer is used, the change in the movement signal of the magnetic particles over time is inversely correlated to the change in the viscosity of the dry reagent. As the clotting reaction advances, the viscosity in the reaction cell increases, and the movement of the magnetic particles becomes slower. The clot waveform is analyzed by determining a difference between the waveform value (scattered light) after a given period of time from the point when an electromagnet is turned on and the waveform value (scattered light) after a given period of time from the point when electromagnet is turned off. Differences in the waveform values are plotted with the elapse of time, and a point at which the waveform value is lowered by a given percentage from the maximal value (also referred to as “peak TOP”) is designated as the end point. The period from the peak TOP to the end point is measured to obtain the measured value (seconds). The term “clotting time” used herein refers to the period from the peak TOP to the end point. […]

O=C(NC[C@H]1CN(c2ccc(N3CCOCC3=O)cc2)C(=O)O1)c1ccc(Cl)s1 [rivaroxaban]
Slope of clot waveform, Mean: −805.9
